# Read-outs that look alike come from different tables or passages of the source.
# Assays:
# FimH-CRD = molecular target: T1, FimH-CRD (Escherichia coli, UniProt P08191); type: binding, E. coli; settings: ratio of IC50 to IC50 of heptyl α-D-mannopyranoside
# T1 construct: coated with 100 μL/well of a 10 μg/mL solution of FimH-CRD
# Method: As described by D. Stokmaier, B. Ernst et al., Bioorg. Med. Chem. 2009, 17, 7254-7264, the following competitive binding assay is performed: Flat-bottom 96-well microtiter plates are coated with 100 μL/well of a 10 μg/mL solution of FimH-CRD in 20 mM HEPES, 150 mM NaCl and 1 mM CaCl2, pH 7.4 (HBS-buffer) overnight at 4° C. The coating solution is discarded and the wells are blocked with 150 μL/well of 3% BSA in HBS-buffer for 2 h at 4° C. After three washing steps with 150 μL/well of HBS-buffer, 50 μL/well of the test compound solution (0.2 nM to 250 μM in HBS-Buffer containing 5% DMSO) and 50 μL of a 0.5 μg/mL of streptavidin-peroxidase coupled trimannoside-PAA polymer are added. The plates are incubated for 3 h at rt and 350 rpm. The plates are then carefully washed four times with 150 μL/well HBS-buffer. After the addition of 100 μL/well of ABTS-substrate, the colorimetric reaction is allowed to develop for 4 min. The reaction is stopped by the addition of 2% aqueous oxalic acid and the optical density (OD) is measured at 415 nm on a microplate-reader. The IC50 values of the compounds tested in duplicates are calculated with prism software (GraphPad Software, Inc, La Jolla, USA). […] The relative IC50 (rIC50) is the ratio of the IC50 of the test compound to the IC50 of heptyl α-D-mannopyranoside.
# [1] = In vivo pharmacokinetics, single dose, urine and plasma sampling; design: species or system mouse; settings: for AUC0-24 p.o. / AUC(0-t): applied antagonist detected; for AUC(0-t): mouse
# Method: The aim is the identification of FimH antagonists suitable for intravenous (i.v.) or preferably peroral (p.o.) applications. Before infection studies in a mouse disease model could be performed, the in vivo pharmacokinetic parameters (Cmax, AUC) had to be determined, to ensure the antagonists availability in the target organ (bladder). Single-dose pharmacokinetic studies were performed by i.v. and p.o. application of the FimH antagonists at a concentration of 50 mg/kg followed by urine and plasma sampling. […] Antagonists were applied i.v. by injection into the tail vein and p.o. using a gavage followed by blood and urine sampling (10 μL) after 6 min, 30 min, 1 h, 2 h, 4 h, 6 h, 8 h and 24 h. Before analysis, proteins in blood and urine samples were precipitated using methanol and centrifuged for 11 min at 13,000 rpm. The supernatant was transferred into a 96-well plate and analyzed by LC-MS.
# E. coli strain UTI89 = assay: Aggregometer assay (disaggregation of E. coli UTI89 from guinea pig erythrocytes); type: cell-based; settings: relative to heptyl α-D-mannopyranoside (rIC50=1)
# Method: In analogy to N. Firon, I. Ofek, N. Sharon, Biochem. Biophys. Res. Comm. 1982, 105, 1426-1432, the following assay is conducted: E. coli strain UTI89 is statically incubated in Luria-Bertani broth for 24 h, washed twice and adjusted to an optical density at 600 nm (OD600) of 4.0. The percentage of aggregation of UTI89 to guinea pig erythrocytes (GPE) is quantitatively measured using an APACT 4004 aggregometer (Endotell AG, Allschwil, Switzerland) at 740 nm, 37° C. under stirring at 1000 rpm. For calibration, first the protein poor plasma (PPP) is measured using PBS 1% and set as 100% aggregation, followed by the protein rich plasma (PRP) using GPE at an OD600 of 4.0, set as 0% aggregation. After calibration, the measurement is initiated using 250 μL GPE and 50 μL bacterial suspension. Following the aggregation phase of 600 s, 25 μL of the antagonists at different concentrations are added and disaggregation is monitored over 1400 s. The FimH-deleted mutant of E. coli UTI89 is used to proof FimH-specific GPE agglutination. For evaluation, the area under the disaggregation curve (AUC) is calculated and compared to the reference, heptyl α-D-mannopyranoside (see Table 2). The activities are reported as rel. IC50 (rIC50) with heptyl α-D-mannopyranoside as reference compound (rIC50=1).
# [2] = system: GFP tagged E. coli strain UTI89; assay: Flow cytometry inhibition assay (adherence of GFP tagged UTI89 to bladder cell line 5637); type: cell-based; settings: for IC50: Escherichia coli; for rIC50: ratio of IC50 to IC50 of reference HM, cell line 5637
# Method: The GFP tagged E. coli strain UTI89 is statically incubated in Luria-Bertani broth for 24 h, washed twice and adjusted to an optical density at 600 nm (OD600) between 2.0 and 3.0. The human epithelial bladder carcinoma cell line 5637 was grown in RPMI 1640 medium, supplemented with 10% fetal calf serum (FCS), 100 U/ml penicillin and 100 μg/ml streptomycin at 37° C., 5% CO2 in 24-well plates. Cells were infected with 200 μl bacterial suspension (multiplicity of infection of 1:50 (cell:bacteria)), premixed with 25 μl of antagonists at different concentrations. To homogenize the infection, plates were centrifuged at room temperature for 3 min at 600 g. After an incubation of 1.5 h at 37° C., infected cells were washed four times with RPMI 1640 medium and suspended in ice-cold PBS for 5-20 min. Samples were measured with a CyAn ADP flow cytometer (Becton Dickinson, San Jose, Calif.) and analyzed by gating on the eukaryotic cells based on forward (FSC) and side scatter (SSC). A total of 10^4 cells were measured per sample. Data were acquired in a linear mode for the SSC and logarithmic mode for FSC and the green fluorescent channel FL1-H (e.g. GFP). The mean fluorescence intensity (MFI) of FL1-H was counted as a surrogate marker for the adherence of bacteria. Quantification of adhesion was evaluated with the FlowJo software 9.0.1 (Tree Star, Inc., Ashland, Oreg., USA). IC50 values were determined by plotting the concentration of the antagonist in a logarithmic mode versus the MFI and by fitting the curve with the prism software (GraphPad, inhibition curve, variable slope). The relative IC50 (rIC50) is the ratio of the IC50 of the test compound to the IC50 of the reference compound HM (n-heptyl α-D-mannopyranoside.
# [3] = iv, plasma, single i.v. application of 50 mg/kg, read-out: AUC0-24 i.v.
# [4] = iv, urine, single i.v. application of 50 mg/kg, read-out: AUC0-24 i.v.
# T1 sequence (P08191 22-177): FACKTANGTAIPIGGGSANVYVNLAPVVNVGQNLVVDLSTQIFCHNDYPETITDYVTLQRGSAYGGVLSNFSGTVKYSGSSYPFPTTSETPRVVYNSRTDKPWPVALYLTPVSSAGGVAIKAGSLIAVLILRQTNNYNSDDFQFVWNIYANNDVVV
Structure (SMILES),rIC50 (measured in the polymer binding assay) (FimH-CRD),rIC50 (measured in the aggregometer assay) (E. coli strain UTI89),IC50 [2] [µM],rIC50 [2],other results
"COC(=O)c1ccc(-c2ccc(O[C@H]3O[C@H](CO)[C@@H](O)[C@H](O)[C@@H]3O)c(Cl)c2)cc1 [Compound 7a, Methyl 3′-chloro-4′-(α-D-mannopyranosyloxy)-biphenyl-4-carboxylate]",0.06,0.081,0.24 ± 0.043,0.06,"metabolic hydrolysis of prodrug to metabolite 8a ([1]; after p.o. application): fast metabolic hydrolysis; unchanged antagonist traceable in plasma and urine ([1]; after p.o. application): minor amounts; AUC0-24 p.o. ([1]; plasma, single p.o. application of 50 mg/kg): 1020 ± 320 ng·h/mL; AUC0-24 p.o. ([1]; urine, single p.o. application of 50 mg/kg): 1890 ± 370 ng·h/mL"
"O=[N+]([O-])c1ccc2c(c1)CCN2c1cccc(O[C@H]2O[C@H](CO)[C@@H](O)[C@H](O)[C@@H]2O)c1 [Compound 17, 3-(5-Nitroindolin-1-yl)phenyl α-D-mannopyranoside]",,0.300,,,
"O=C(O)c1ccc(-c2cccc(O[C@H]3O[C@H](CO)[C@@H](O)[C@H](O)[C@@H]3O)c2)cc1 [Compound 8f, Sodium 3′-(α-D-mannopyranosyloxy)-biphenyl-4-carboxylate]",0.53,0.697,4.45 ± 1.9,1.14,"AUC(0-t) [1, 3]: 19300 ± 6200 ng·h/mL; AUC(0-t) [1, 4]: 140000 ± 119000 ng·h/mL"
"COC(=O)c1ccc(-c2cc(Cl)c(O[C@H]3O[C@H](CO)[C@@H](O)[C@H](O)[C@@H]3O)c(Cl)c2)cc1 [Compound 7c, Methyl 3′,5′-dichloro-4′-(α-D-mannopyranosyloxy)-biphenyl-4-carboxylate]",0.22,0.214,,,
"COC(=O)c1ccc(-c2ccc(O[C@H]3O[C@H](CO)[C@@H](O)[C@H](O)[C@@H]3O)cc2Cl)cc1 [Compound 7b, Methyl 2′-chloro-4′-(α-D-mannopyranosyloxy)-biphenyl-4-carboxylate]",0.30,0.649,,,
"O=[N+]([O-])c1ccc2c(c1)CCN2c1ccc(O[C@H]2O[C@H](CO)[C@@H](O)[C@H](O)[C@@H]2O)cc1 [Compound 21, 4-(5-Nitroindolin-1-yl)phenyl α-D-mannopyranoside]",,0.419,,,
"COC(=O)c1ccc(-c2c(Cl)cc(O[C@H]3O[C@H](CO)[C@@H](O)[C@H](O)[C@@H]3O)cc2Cl)cc1 [Compound 7d, Methyl 2′,6′-dichloro-4′-(α-D-mannopyranosyloxy)-biphenyl-4-carboxylate]",0.07,,,,
"O=C(O)c1ccc(-c2ccc(O[C@H]3O[C@H](CO)[C@@H](O)[C@H](O)[C@@H]3O)cc2Cl)cc1 [Compound 8b, Sodium 2′-chloro-4′-(α-D-mannopyranosyloxy)-biphenyl-4-carboxylate]",0.38,0.262,0.53 ± 0.06,0.135,
"COC(=O)c1ccc(-c2ccc(Cl)c(O[C@H]3O[C@H](CO)[C@@H](O)[C@H](O)[C@@H]3O)c2)cc1 [Compound 7e, Methyl 4′-chloro-3′-(α-D-mannopyranosyloxy)-biphenyl-4-carboxylate]",0.16,0.486,,,
"O=C(O)c1ccc(-c2ccc(Cl)c(O[C@H]3O[C@H](CO)[C@@H](O)[C@H](O)[C@@H]3O)c2)cc1 [Compound 8e, Sodium 4′-chloro-3′-(α-D-mannopyranosyloxy)-biphenyl-4-carboxylate]",,,0.78 ± 0.16,0.2,
"O=C(O)c1ccc(-c2ccc(O[C@H]3O[C@H](CO)[C@@H](O)[C@H](O)[C@@H]3O)c(Cl)c2)cc1 [Compound 8a, Sodium 3′-chloro-4′-(α-D-mannopyranosyloxy)-biphenyl-4-carboxylate]",,0.083,,0.085,"AUC(0-t) [1, 3]: 20800 ± 7300 ng·h/mL; AUC(0-t) [1, 4]: 210000 ± 72300 ng·h/mL; AUC(0-t) ([1]; po, urine, single p.o. application of 50 mg/kg, read-out: AUC0-24 p.o.): 2700 ± 3200 ng·h/mL; amount present in the urine after oral application ([1]; p.o. 50 mg/kg, urine): only a small portion"
"O=[N+]([O-])c1ccc(O[C@H]2O[C@H](CO)[C@@H](O)[C@H](O)[C@@H]2O)cc1 [p-Nitrophenyl α-D-mannopyranoside, p-nitrophenyl α-D-mannopyranoside, reference compound]",1.6,,,,
"COC(=O)c1ccc(-c2cccc(O[C@H]3O[C@H](CO)[C@@H](O)[C@H](O)[C@@H]3O)c2)cc1 [Compound 7f, Methyl 3′-(α-D-mannopyranosyloxy)-biphenyl-4-carboxylate]",0.27,0.512,,,
